Data on seven compounds can be found in patent US5556859A, “N-(4-pyrimidinyl)amide pesticides” (DowElanco, priority 1994, dated 1996).

Experiment [1] concerns tobacco budworm (Heliothis virescens). Nature of the experiment: Activity against tobacco budworm (TBW). The note with it: 144 h, read-out: percent mortality, TBW. The experiment is classed as in vivo. How it is done:
In conducting evaluations of insecticidal activity, each test compound was formulated as a 400 ppm solution, and this solution was then diluted with water to give lesser concentrations. The 400 ppm solution was prepared by combining 19.2 mL of 0.05% solution of Tween 20 (polyoxyethylene (20) sorbitan monolaurate) in water with a solution of 8 mg of the compound in 0.8 mL of acetone/EtOH (9/1).
Activity against tobacco budworm (Heliothis virescens) was evaluated as follows. A general purpose lepidoptera artificial diet was diluted to half strength with a 5% non nutritive agar. 8 mL of this diet material was dispensed into each one ounce diet cup. One hour prior to treatment 18 to 20 eggs were dispensed onto the diet surface. The cups were then sprayed with formulated material through a flat-fan nozzle. The test was run using concentrations of 400 ppm and 50 ppm. Treated cups were air dried prior to sealing with plastic caps. The cups were held for 6 days at room temperature. Activity was then rated based on the total number of live and dead larvae, and on the size of live larvae.

Experiment [2] has as its system two spotted spider mite (Tetranychus urticae). The experiment in a line: whole plant or invertebrate. The note with it: 72 h, read-out: percent mortality, TSSM.
The subject of experiment [3] is cotton aphid (Aphis gossypii). Nature of the experiment: whole plant or invertebrate. As to conditions: 72 h, read-out: percent mortality, CA.
The test system of experiment [4] is peanut root knot nematode (Meloidogyne arenaria). Nature of the experiment: whole plant or invertebrate. As to conditions: in Arachis hypogaea, read-out: percent mortality, RKN.
Experiment [5] concerns Southern corn rootworm (Diabrotica undecimpuctata howardi Barber). The experiment in a line: whole plant or invertebrate. As to conditions: in Zea mays, soil, read-out: percent mortality, SCRW.
In experiment [6] the test system is aster leafhopper (Macrosteles fascifrons). Nature of the experiment: whole plant or invertebrate. The note with it: 24 h, read-out: percent mortality, ALH.
The test system of experiment [7] is beet armyworm (Spodoptera exiqua). The experiment in a line: whole plant or invertebrate. As to conditions: 144 h, read-out: percent mortality, BAW.
For experiment [8], the system named is German cockroach (Blattella germanicus). Nature of the experiment: whole plant or invertebrate. The note with it: 240 h, read-out: percent mortality, GECR.

Regarding `O=C(Cc1ccc(OCC(F)(F)F)cc1)Nc1ccnc(-c2ccccc2)n1` [Compound 5, 4-(2,2,2-trifluroethoxy)phenyl-N-(2-phenyl-4-pyrimidinyl)acetamide], the mortality at 400 ppm in experiment [1] turned out to be 0%; in experiment [2] it was 0%; in experiment [3] it was 0%; in experiment [4] it was 0%; in experiment [6], 0%; in experiment [7], 30%. In experiment [8], the mortality at 400 ppm came to 0%. In addition, the mortality at 24 µg/g in experiment [5] worked out at 0%.

Take `CSc1nccc(NC(=O)Cc2ccc(Oc3ccc(F)cc3)cc2)n1` [Compound 6, 4-(4-fluorophenoxy)phenyl-N-(2-methylthio-4-pyrimidinyl)acetamide]: the mortality at 400 ppm was determined as 90% in experiment [1]; 0% in experiment [2]; 100% in experiment [3]; 0% in experiment [4]; 100% in experiment [6]; 100% in experiment [7]. Also, the mortality at 400 ppm in experiment [8] came to 60%. Moreover, the mortality at 24 µg/g in experiment [5] was 100%.

In the case of `O=C(Cc1ccc(Oc2ccc(F)cc2)cc1)Nc1ccnc(-c2ccccc2)n1` [Compound 7, 4-(4-fluorophenoxy)phenyl-N-(2-phenyl-4-pyrimidinyl)acetamide], the mortality at 400 ppm in experiment [1] was 60%; in experiment [2], 0%; in experiment [3], 100%; in experiment [4] it was 0%; in experiment [6], 0%; in experiment [7], 60%. Also, the mortality at 400 ppm in experiment [8] came out at 60%. In addition, the mortality at 24 µg/g in experiment [5] came to 0%.

Take `Cc1nccc(NC(=O)Cc2cccc(Oc3ccccc3)c2)n1` [Compound 8, 3-phenoxyphenyl-N-(2-methyl-4-pyrimidinyl)acetamide]: the mortality at 400 ppm was determined as 0% in experiment [1]; 0% in experiment [2]; 100% in experiment [3]; 0% in experiment [4]; 100% in experiment [6]; 0% in experiment [7]. The mortality at 400 ppm in experiment [8] turned out to be 40%. For the same compound, the mortality at 24 µg/g in experiment [5] is 0%.

With `CCc1nccc(NC(=O)Cc2ccc(OCC(F)(F)F)cc2)n1` [Compound 9, 4-(2,2,2-trifluroethoxy)phenyl-N-(2-ethyl-4-pyrimidinyl)acetamide], the mortality at 400 ppm in experiment [1] was 100%; in experiment [2], 0%; in experiment [3], 100%; in experiment [4], 0%; in experiment [6] it was 100%; in experiment [7], 100%. Besides, the mortality at 400 ppm in experiment [8] is 0%. For the same compound, the mortality at 24 µg/g in experiment [5] amounted to 0%.

On to `CCc1nccc(NC(=O)Cc2ccc(Oc3ccc(F)cc3)cc2)n1` [Compound 10, 4-(4-fluorophenoxy)phenyl-N-(2-ethyl-4-pyrimidinyl)acetamide], for which the mortality at 400 ppm in experiment [1] was 100%; in experiment [2], 100%; in experiment [3], 100%; in experiment [4], 90%; in experiment [6] it was 100%; in experiment [7], 100%. In addition, the mortality at 400 ppm in experiment [8] was 100%. In addition, in experiment [5], the mortality at 24 µg/g turned out to be 100%.

Regarding `CCc1nccc(NC(=O)Cc2ccc(Oc3ccc(C(F)(F)F)cc3)cc2)n1` [Compound 11, 4-(4-trifluoromethylphenoxy)phenyl-N-(2-ethyl-4-pyrimidinyl)acetamide], the mortality at 400 ppm was found to be 100% in experiment [1]; 100% in experiment [2]; 100% in experiment [3]; 80% in experiment [4]; 80% in experiment [6]; 100% in experiment [7]. Also, the mortality at 400 ppm in experiment [8] was 100%. For the same compound, in experiment [5], the mortality at 24 µg/g came out at 100%.

The mortality is the share of the test organisms that died.
